“And” between values parts separate entries of the source, which are not always exact repeats. Identical values can stand only once. Counter-ions that a name gives are not always drawn.
Assays:
ICR mice [1] = assay: forced swimming test (FST); assay type: in vivo
Description: (§1) The antidepressant activity of the drugs was evaluated by classic behavioral measurements, such as the forced swimming test (FST) and tail suspension test (TST). All the ICR mice were randomly divided into several groups (n = 8) as follows: a control group with stimulation and different test groups subjected to FST and TST after the oral administration of different drugs for 8 days, including fluoxetine (10 mg/kg), BZD (3 g/kg), ZD (3 g/kg), Baihe decoction (BD, 3 g/kg), PZ (21.2 mg/kg), XZ (21.2 mg/kg), SZ (21.2 mg/kg), timosaponin BII (10 mg/kg) and timosaponin BIII (10 mg/kg).
(§2) The FST was performed according to a previously described method with minor modifications. Briefly, each mouse was individually placed in an open water-filled cylinder (H: 50 cm; Ø: 20 cm; water depth: 35 cm; temperature: 23–25 °C) and allowed to swim for a period of 6 min. The total time of immobility was recorded during the last 4 min of the testing duration. Immobility is defined as the mice floating in the water without movement. The TST was conducted as described in the literature. Briefly, the mice were suspended 20 cm above the floor for 6 min. The time of immobility was recorded after the first 2 min. Mice in a completely motionless state were considered immobile.

ICR mice [2] = assay: tail suspension test (TST); assay type: in vivo
Description: as §1, §2

serotonin (5-HT) = assay: content of serotonin (5-HT) by ELISA kit; assay type: in vivo, ICR mice; conditions: Table 5; 10 mg/kg oral; control 636.2 ± 80.1
Description: as §1
(§3) The contents of dopamine (DA) and serotonin (5-HT) in the plasma were determined using ELISA Kits (Shanghai Jianglai Biotech Co., Ltd., Shanghai, China) according to the manufacturer’s instructions.

dopamine (DA) = assay: content of dopamine (DA) by ELISA kit; assay type: in vivo, ICR mice; conditions: Table 5; 10 mg/kg oral; control 171.6 ± 54.5
Description: as §1, §3

[3] = pharmacokinetic study of five major components after oral administration of BZD (HPLC-QQQ MS); assay type: in vivo, Sprague–Dawley (SD) rats; conditions: Sprague-Dawley, rat, in vivo, po, 15 g/kg
Description: The HPLC-QQQ MS method was developed according to a previous study in our group. Briefly, five compounds were simultaneously determined in plasma, liver and brain samples using a 1260 Series liquid chromatography system (Agilent Technologies, Palo Alto, CA, USA) coupled to a 6460 triple quadrupole mass spectrometer with an electrospray ionization source (Agilent Technologies, Palo Alto, CA, USA). Chromatographic separation was performed on an ACE Super C18 column (100 mm × 2.1 mm, 3.0 µm, Advanced Chromatography Technologies Ltd. Aberdeen, Scotland) at a temperature of 40 °C. The mobile phase consisted of water containing 0.1% formic acid (A) and acetonitrile containing 0.1% formic acid (B). The gradient program was performed as follows: 0–3 min, 92% A; 3.5–4.0 min, 88–60% A; 5.5–6 min, 60–55% A; 6.6–7 min, 55–5% A; 11–11.01 min, 5–92% A; 11.01–13.5 min, 92% A. The flow rate was set to 0.35 mL/min in the time range of 0–6.6 min and kept at 0.45 mL/min between 7 and 13.5 min. Five components were monitored in negative multiple reaction monitoring (MRM) mode. The parameters of the mass spectrometer were as follows: capillary voltage, 3500 V; nebulizer, 45 psi; gas temperature, 350 °C; gas flow rate, 12 L/min; sheath gas temperature, 400 °C; sheath gas flow rate, 8 L/min. MassHunter Workstation software (Agilent Technologies, Palo Alto, CA, USA) was used for system operation and data analysis.
All Sprague–Dawley (SD) rats and ICR mice were purchased from Shanghai SLAC Laboratory Animal Co., Ltd. and kept in the breeding room at 22 ± 2 °C and 50 ± 10% humidity in Shanghai Institute of Materia Medica (SIMM). The experimental protocols were approved by the Institutional Animal Care and Use Committee in SIMM. After 1 week of acclimation, all the SD rats were orally administered BZD (15 g/kg). The biological samples were collected from the rats after fasting for 12 h. After anaesthetization, the rats were dissected at 5 min, 15 min, 30 min, 1 h, 2 h, 4 h, 7 h, 10 h, 20 h and 40 h (n = 5 for each time-point). The hepatic portal vein plasma (2 mL) and the systemic plasma (6–8 mL) were subsequently harvested, and finally the liver and brain tissue samples were collected. The plasma sample were centrifuged at 9500×g for 5 min, and the tissue samples were washed with saline solution. All samples were stored at − 80 °C until analysis. The samples were prepared according to the method described in the previous study by our group.
A noncompartmental analysis was carried out using WinNonlin software (Pharsight 6.2, NC, USA) to calculate the PK parameters. The significance of the results in behavior assessment was analyzed by unpaired Student’s t-tests. A P value less than 0.05 was considered significant. The liver extraction ratio (ER) indicated the fraction of hepatic clearance and first-pass effect, and the calculation formula was as reported in a previous study by our group.

| Compound | Immobility time (mean ± SD, s) FST (ICR mice [1]; Table 1, oral administration for 8 days, n = 8, fluoxetine 10 mg/kg, BZD, ZD, BD 3 g/kg, control 127.6 ± 40.9) [s] | Immobility time (mean ± SD, s) FST (ICR mice [1]; Table 2, oral administration for 8 days, n = 8, fluoxetine 10 mg/kg, SZ, PZ, XZ 21.2 mg/kg, control 134.3 ± 22.1) [s] | Immobility time (mean ± SD, s) FST (ICR mice [1]; Table 4, oral administration for 8 days, n = 8, 10 mg/kg, control 118.1 ± 24.3) [s] | Immobility time (mean ± SD, s) TST (ICR mice [2]; Table 1, oral administration for 8 days, n = 8, fluoxetine 10 mg/kg, BZD, ZD, BD 3 g/kg, control 109.1 ± 15.5) [s] | Immobility time (mean ± SD, s) TST (ICR mice [2]; Table 2, oral administration for 8 days, n = 8, fluoxetine 10 mg/kg, SZ, PZ, XZ 21.2 mg/kg, control 118.6 ± 18.1) [s] | Immobility time (mean ± SD, s) TST (ICR mice [2]; Table 4, oral administration for 8 days, n = 8, 10 mg/kg, control 102.0 ± 16.9) [s] | Content (ng/g) 5-HT (serotonin (5-HT)) [ng/g] | Content (ng/g) DA (dopamine (DA)) [ng/g] | Cmax [3] [ng/mL] | Tmax [3] [h] | AUC(0-t) ([3]; AUC0–t) [ng·h/mL] | Cmax ([3]; Cmax) |
| --- | --- | --- | --- | --- | --- | --- | --- | --- | --- | --- | --- | --- |
| CNCCC(Oc1ccc(C(F)(F)F)cc1)c1ccccc1 (stereo not drawn) [Fluoxetine, fluoxetine hydrochloride] | 84.8 ± 15.2 | 82.0 ± 21.3 | 70.2 ± 21.2 | 62.0 ± 36.2 | 69.5 ± 21.5 | 50.0 ± 22.2 | 731.3 ± 104.6 | 215.9 ± 36.5 |  |  |  |  |
| O=c1c2cc(O)c(O)cc2oc2cc(O)c([C@@H]3O[C@H](CO)[C@@H](O)[C@H](O)[C@H]3O)c(O)c12 [Mangiferin, mangiferin] |  |  |  |  |  |  |  |  | 889.36 ± 191.49 | 1.00 | 4020 ± 397 | 131 ng/g and 1760 ng/mL |
